Among the data in patent US9566254B2, “Inhibitors and methods of inhibiting bacterial and viral pathogens” (priority 2010, dated 2017) are EC50 values, retold here.

Where a name gives a salt, the structure may show the parent alone.

The first experiment has as its system vaccinia virus. Briefly: microbe, parasite or virus in culture. The class given is cell-based. Conditions: Orthopoxvirus vaccinia, read-out: Avg Activity (VV).
`COc1cc(NC(=S)NC(=O)c2ccc(C(C)(C)C)cc2)ccc1N` [Compound 1, N-[(4-amino-3-methoxy-phenyl)carbamothioyl]-4-tert-butyl-benzamide]: the EC50 is less than 1 µM.

With `CC(C)(C)c1ccc(C(=O)NC(=S)Nc2ccc(Nc3cccnc3)cc2)cc1` [Compound 36, 4-tert-butyl-N-[[4-(3-pyridylamino)phenyl]-carbamothioyl]benzamide hydrochloride], the EC50 lay in the range of 10 to 25 µM.

Turning to `CC(C)(C)c1ccc(C(=O)NC(=S)Nc2ccc(Nc3ccncc3)cc2)cc1` [Compound 38, 4-tert-butyl-N-[[4-(4-pyridylamino)phenyl]-carbamothioyl]benzamide hydrochloride], the EC50 is greater than 25 µM.

With `Cc1ccc(C(=O)NC(=S)Nc2ccc(NC(=O)c3ccc(C(C)(C)C)cc3)cc2)cc1` [Compound 41, N-[[4-[(4-tert-butylbenzoyl)amino]phenyl]carbamothioyl]-4-methyl-benzamide], the EC50 is less than 1 µM.

As for `Cc1ccccc1NC(=S)NC(=O)c1ccc(C(C)(C)C)cc1` [Compound 42, 4-tert-butyl-N-(o-tolylcarbamothioyl)-benzamide], the EC50 was less than 1 µM.

As for `CC(C)(C)c1ccc(C(=O)NC(=S)Nc2ccc(NC(=O)c3ccccc3)cc2)cc1` [Compound 43, N-[(4-benzamidophenyl)-carbamothioyl]-4-tert-butyl-benzamide], the EC50 is less than 1 µM.

Consider `CC(C)(C)c1ccc(C(=O)NC(=S)Nc2cc(C(F)(F)F)ccc2Cl)cc1` [Compound 44, 4-tert-butyl-N-[[2-chloro-5-(trifluoromethyl)phenyl]-carbamothioyl]benzamide], for which the EC50 is less than 1 µM.

For the compound `CC(C)(C)c1ccc(C(=O)NC(=S)Nc2cc(C(C)(C)C)ccc2O)cc1` [Compound 46, 4-tert-butyl-N-[(5-tert-butyl-2-hydroxy-phenyl)-carbamothioyl]benzamide], the EC50 was less than 1 µM.

Take `Cc1c(Cl)cccc1NC(=S)NC(=O)c1ccc(C(C)(C)C)cc1` [Compound 47, 4-tert-butyl-N-[(3-chloro-2-methyl-phenyl)-carbamothioyl]benzamide]: the EC50 is 1 to 10 µM.

`CC(C)(C)c1ccc(C(=O)NC(=S)Nc2cc(Cl)ccc2Cl)cc1` [Compound 50, 4-tert-butyl-N-[(2,5-dichlorophenyl)-carbamothioyl]benzamide]: the EC50 lay in the range of 1 to 10 µM.

Take `COc1ccccc1NC(=S)NC(=O)c1ccc(C(C)(C)C)cc1` [Compound 51, 4-tert-butyl-N-[(2-methoxyphenyl)-carbamothioyl]benzamide]: the EC50 is 1 to 10 µM.

For the compound `CC(C)(C)c1ccc(C(=O)NC(=S)Nc2cccc(Cl)c2)cc1` [Compound 52, 4-tert-butyl-N-[(3-chlorophenyl)-carbamothioyl]benzamide], the EC50 lay within 1 to 10 µM.

Turning to `CC(C)(C)c1ccc(C(=O)NC(=S)Nc2ccccc2)cc1` [Compound 53, 4-tert-butyl-N-(phenylcarbamothioyl)-benzamide], the EC50 was 1 to 10 µM.

For the compound `Cc1cccc(NC(=S)NC(=O)c2ccc(C(C)(C)C)cc2)c1C` [Compound 54, 4-tert-butyl-N-[(2,3-dimethylphenyl)-carbamothioyl]benzamide], the EC50 fell in the range of 1 to 10 µM.

On to `Cc1ccc(NC(=S)NC(=O)c2ccc(C(C)(C)C)cc2)cc1C` [Compound 55, 4-tert-butyl-N-[(3,4-dimethylphenyl)-carbamothioyl]benzamide], for which the EC50 lay within 1 to 10 µM.

For `CCOc1ccccc1NC(=S)NC(=O)c1ccc(C(C)(C)C)cc1` [Compound 56, 4-tert-butyl-N-[(2-ethoxyphenyl)-carbamothioyl]benzamide], the EC50 lay within 1 to 10 µM.

A further experiment has as its system influenza virus. Briefly: microbe, parasite or virus in culture. The class given is cell-based. Conditions: unidentified influenza virus, A549, read-out: Misc Activity: Influenza.
Consider `COc1cc(NC(=S)NC(=O)c2ccc(C(C)(C)C)cc2)ccc1N` [Compound 1, N-[(4-amino-3-methoxy-phenyl)carbamothioyl]-4-tert-butyl-benzamide], for which the EC50 was less than 1 µM.

The next experiment deals with Chlamydophila caviae. The experiment can be described thus: microbe, parasite or virus in culture. The class given is cell-based. Conditions: Chlamydia caviae, Vero, read-out: Avg Activity (C. Caviae).
Turning to `COc1cc(NC(=S)NC(=O)c2ccc(C(C)(C)C)cc2)ccc1N` [Compound 1, N-[(4-amino-3-methoxy-phenyl)carbamothioyl]-4-tert-butyl-benzamide], the EC50 was less than 1 µM.

For the compound `CC(C)(C)c1ccc(C(=O)NC(=S)Nc2ccc(Nc3cccnc3)cc2)cc1` [Compound 36, 4-tert-butyl-N-[[4-(3-pyridylamino)phenyl]-carbamothioyl]benzamide hydrochloride], the EC50 is less than 1 µM.

On to `CC(C)(C)c1ccc(C(=O)NC(=S)Nc2ccc(Nc3ccncc3)cc2)cc1` [Compound 38, 4-tert-butyl-N-[[4-(4-pyridylamino)phenyl]-carbamothioyl]benzamide hydrochloride], for which the EC50 is greater than 25 µM.

Consider `Cc1ccc(C(=O)NC(=S)Nc2ccc(NC(=O)c3ccc(C(C)(C)C)cc3)cc2)cc1` [Compound 41, N-[[4-[(4-tert-butylbenzoyl)amino]phenyl]carbamothioyl]-4-methyl-benzamide], for which the EC50 was less than 1 µM.

On to `Cc1ccccc1NC(=S)NC(=O)c1ccc(C(C)(C)C)cc1` [Compound 42, 4-tert-butyl-N-(o-tolylcarbamothioyl)-benzamide], for which the EC50 was less than 1 µM.

As to `CC(C)(C)c1ccc(C(=O)NC(=S)Nc2ccc(NC(=O)c3ccccc3)cc2)cc1` [Compound 43, N-[(4-benzamidophenyl)-carbamothioyl]-4-tert-butyl-benzamide], the EC50 was less than 1 µM.

`CC(C)(C)c1ccc(C(=O)NC(=S)Nc2cc(C(F)(F)F)ccc2Cl)cc1` [Compound 44, 4-tert-butyl-N-[[2-chloro-5-(trifluoromethyl)phenyl]-carbamothioyl]benzamide]: the EC50 is less than 1 µM.

Consider `CC(C)(C)c1ccc(C(=O)NC(=S)Nc2cc(C(C)(C)C)ccc2O)cc1` [Compound 46, 4-tert-butyl-N-[(5-tert-butyl-2-hydroxy-phenyl)-carbamothioyl]benzamide], for which the EC50 is less than 1 µM.

`Cc1c(Cl)cccc1NC(=S)NC(=O)c1ccc(C(C)(C)C)cc1` [Compound 47, 4-tert-butyl-N-[(3-chloro-2-methyl-phenyl)-carbamothioyl]benzamide]: the EC50 was less than 1 µM.

Regarding `CC(C)(C)c1ccc(C(=O)NC(=S)Nc2cc(Cl)ccc2Cl)cc1` [Compound 50, 4-tert-butyl-N-[(2,5-dichlorophenyl)-carbamothioyl]benzamide], the EC50 is less than 1 µM.

Take `COc1ccccc1NC(=S)NC(=O)c1ccc(C(C)(C)C)cc1` [Compound 51, 4-tert-butyl-N-[(2-methoxyphenyl)-carbamothioyl]benzamide]: the EC50 is less than 1 µM.

Consider `CC(C)(C)c1ccc(C(=O)NC(=S)Nc2cccc(Cl)c2)cc1` [Compound 52, 4-tert-butyl-N-[(3-chlorophenyl)-carbamothioyl]benzamide], for which the EC50 was less than 1 µM.

For the compound `CC(C)(C)c1ccc(C(=O)NC(=S)Nc2ccccc2)cc1` [Compound 53, 4-tert-butyl-N-(phenylcarbamothioyl)-benzamide], the EC50 is less than 1 µM.

For `Cc1cccc(NC(=S)NC(=O)c2ccc(C(C)(C)C)cc2)c1C` [Compound 54, 4-tert-butyl-N-[(2,3-dimethylphenyl)-carbamothioyl]benzamide], the EC50 is less than 1 µM.

With `Cc1ccc(NC(=S)NC(=O)c2ccc(C(C)(C)C)cc2)cc1C` [Compound 55, 4-tert-butyl-N-[(3,4-dimethylphenyl)-carbamothioyl]benzamide], the EC50 was less than 1 µM.

Regarding `CCOc1ccccc1NC(=S)NC(=O)c1ccc(C(C)(C)C)cc1` [Compound 56, 4-tert-butyl-N-[(2-ethoxyphenyl)-carbamothioyl]benzamide], the EC50 was less than 1 µM.

A further experiment concerns La Crosse virus (LACV). The experiment can be described thus: microbe, parasite or virus in culture. The class given is cell-based. Conditions: La Crosse virus, Vero, read-out: Avg Activity (LACV).
As to `COc1cc(NC(=S)NC(=O)c2ccc(C(C)(C)C)cc2)ccc1N` [Compound 1, N-[(4-amino-3-methoxy-phenyl)carbamothioyl]-4-tert-butyl-benzamide], the EC50 is less than 1 µM.

For `CC(C)(C)c1ccc(C(=O)NC(=S)Nc2ccc(Nc3cccnc3)cc2)cc1` [Compound 36, 4-tert-butyl-N-[[4-(3-pyridylamino)phenyl]-carbamothioyl]benzamide hydrochloride], the EC50 is greater than 25 µM.

Turning to `CC(C)(C)c1ccc(C(=O)NC(=S)Nc2ccc(Nc3ccncc3)cc2)cc1` [Compound 38, 4-tert-butyl-N-[[4-(4-pyridylamino)phenyl]-carbamothioyl]benzamide hydrochloride], the EC50 fell in the range of 1 to 10 µM.

`Cc1ccc(C(=O)NC(=S)Nc2ccc(NC(=O)c3ccc(C(C)(C)C)cc3)cc2)cc1` [Compound 41, N-[[4-[(4-tert-butylbenzoyl)amino]phenyl]carbamothioyl]-4-methyl-benzamide]: the EC50 is less than 1 µM.

On to `Cc1ccccc1NC(=S)NC(=O)c1ccc(C(C)(C)C)cc1` [Compound 42, 4-tert-butyl-N-(o-tolylcarbamothioyl)-benzamide], for which the EC50 was less than 1 µM.

With `CC(C)(C)c1ccc(C(=O)NC(=S)Nc2ccc(NC(=O)c3ccccc3)cc2)cc1` [Compound 43, N-[(4-benzamidophenyl)-carbamothioyl]-4-tert-butyl-benzamide], the EC50 is less than 1 µM.

For the compound `CC(C)(C)c1ccc(C(=O)NC(=S)Nc2cc(C(F)(F)F)ccc2Cl)cc1` [Compound 44, 4-tert-butyl-N-[[2-chloro-5-(trifluoromethyl)phenyl]-carbamothioyl]benzamide], the EC50 was less than 1 µM.

`CC(C)(C)c1ccc(C(=O)NC(=S)Nc2cc(C(C)(C)C)ccc2O)cc1` [Compound 46, 4-tert-butyl-N-[(5-tert-butyl-2-hydroxy-phenyl)-carbamothioyl]benzamide]: the EC50 lay in the range of 1 to 10 µM.

Turning to `Cc1c(Cl)cccc1NC(=S)NC(=O)c1ccc(C(C)(C)C)cc1` [Compound 47, 4-tert-butyl-N-[(3-chloro-2-methyl-phenyl)-carbamothioyl]benzamide], the EC50 is less than 1 µM.

`CC(C)(C)c1ccc(C(=O)NC(=S)Nc2cc(Cl)ccc2Cl)cc1` [Compound 50, 4-tert-butyl-N-[(2,5-dichlorophenyl)-carbamothioyl]benzamide]: the EC50 was in the range of 1 to 10 µM.

`COc1ccccc1NC(=S)NC(=O)c1ccc(C(C)(C)C)cc1` [Compound 51, 4-tert-butyl-N-[(2-methoxyphenyl)-carbamothioyl]benzamide]: the EC50 lay in the range of 1 to 10 µM.

`CC(C)(C)c1ccc(C(=O)NC(=S)Nc2cccc(Cl)c2)cc1` [Compound 52, 4-tert-butyl-N-[(3-chlorophenyl)-carbamothioyl]benzamide]: the EC50 lay within 1 to 10 µM.

Take `CC(C)(C)c1ccc(C(=O)NC(=S)Nc2ccccc2)cc1` [Compound 53, 4-tert-butyl-N-(phenylcarbamothioyl)-benzamide]: the EC50 lay in the range of 1 to 10 µM.

In the case of `Cc1cccc(NC(=S)NC(=O)c2ccc(C(C)(C)C)cc2)c1C` [Compound 54, 4-tert-butyl-N-[(2,3-dimethylphenyl)-carbamothioyl]benzamide], the EC50 fell in the range of 1 to 10 µM.

`Cc1ccc(NC(=S)NC(=O)c2ccc(C(C)(C)C)cc2)cc1C` [Compound 55, 4-tert-butyl-N-[(3,4-dimethylphenyl)-carbamothioyl]benzamide]: the EC50 is 1 to 10 µM.

As for `CCOc1ccccc1NC(=S)NC(=O)c1ccc(C(C)(C)C)cc1` [Compound 56, 4-tert-butyl-N-[(2-ethoxyphenyl)-carbamothioyl]benzamide], the EC50 lay within 1 to 10 µM.
